Values of other authors as cited in US12472172B2, “Lomitapide for use in methods of treating hyperlipidemia and hypercholesterolemia in pediatric patients” (Amryt Pharmaceuticals Inc., priority 2020, dated 2025).

Conditions: adult

**Q.** Which “previously used fixed Qgut input” value does the source give for O=C(NC1CCN(CCCCC2(C(=O)NCC(F)(F)F)c3ccccc3-c3ccccc32)CC1)c1ccccc1-c1ccc(C(F)(F)F)cc1 [lomitapide, N-(2,2,2-trifluoroethyl)-9-[4-[4-[[[4′(trifluoromethyl)[1,1′-biphenyl]-2-yl]carbonyl]amino]-1-piperidinyl]butyl]-9H-fluorene-9-carboxamide] here?
**A.** Its value is 17.9 L/h.
